This is an account of results in patent publication US20250084097A1, “MACROCYCLIC AMIDE COMPOUNDS AND APPLICATION THEREOF” (Medshine Discovery Inc., priority 2021, published 2025).

pIC50: −log10 of the molar value. Where a name gives a salt, the structure may show the parent alone. Read-outs that look alike come from different tables or passages of the source.

In one test the target is T1, EGFR (L858R/T790M/C797S) (Homo sapiens, UniProt P00533, C797S/L858R/T790M).
T1 construct: Reaction Biology Corp. (assay performed there)
The test can be described thus: Kinase inhibitory activity, 33P-ATP filtration-binding (Reaction Biology Corp.). Format: biochemical. As to conditions: read-out: Kinase half-maximal inhibition concentration IC50 EGFR(L858R/T790M/C797S). On the procedure: Compound assay for kinase inhibitory activity against EGFR (L858R/T790M/C797S), EGFR (del19-E746-A750/T790M/C797S), and EGFR (WT) was done at Reaction Biology Corp. In reaction buffer (20 mM Hepes (pH 7.5), 10 mM magnesium chloride (MgCl2), 1 mM ethylenebis(oxyethylenenitrilo)tetraacetic acid (EGTA), 0.02% polyethylene glycol monododecyl ether (Brij35), 0.02 mg/ml BSA, 0.1 mM sodium vanadate (Na3VO4), 2 mM dithiothreitol (DTT), 1% DMSO), a certain concentration of substances, coenzyme factors, kinases and test compounds (10 doses, 3-fold serial dilutions, 2% DMSO final concentration) were added in sequence, and mixed well. The mixture was incubated at room temperature for 20 minutes. A certain concentration of ^33P-ATP was added to the reaction mixture to initiate reaction, followed by incubation at room temperature for 120 minutes. Finally, the radioactivity of the reactants was detected by filtration-binding method. The final kinase activity was expressed as the ratio of the remaining kinase activity of the test sample to the kinase activity of the DMSO control group. The dose-response relationship curve was fitted and IC50 was calculated using GraphPad software.

The target in test [1] is Ba/F3-FL-EGFR (L858R/T790M/C797S) (Homo sapiens, UniProt P00533, T790M/C797S/L858R, cells depend on it). Put plainly: Cell proliferation inhibition, CellTiter-Glo. Format: cell-based. As to conditions: 72 hours, read-out: Cell half-maximal inhibition concentration IC50 Ba/F3-FL-EGFR (L858R/T790M/C797S). On the procedure:
(§1) AdenosineTri-Phosphate (ATP) is an energy carrier shared by various life activities in nature, and is the smallest unit of energy storage and transfer. The CellTiter-Glo™ living cell assay kit uses luciferase as a detector, and luciferase requires the participation of ATP in the process of luminescence. CellTiter-Glo™ reagent is added to a cell culture medium, and the luminescence value is measured. The light signal is directly proportional to the amount of ATP in the system, and ATP is positively correlated with the number of living cells. Therefore, cell proliferation can be detected by detecting ATP content with the CellTiter-Glo kit. In this assay, the cell lines were Ba/F3-FL-EGFR (L858R/T790M/C797S), Ba/F3-FL-EGFR (WT), Ba/F3-FL-EGFR (L858R), Ba/F3-FL-EGFR (del19-S752-I759), Ba/F3-FL-EGFR (del19-E746-A750/T790M/C797S), Ba/F3-FL-EGFR (L858R/T790M), Ba/F3-FL-EGFR (del19-E746-A750/T790M), Ba/F3-TEL-EGFR (L858R/C797S), Ba/F3-FL-EGFR (del19-E746-A750/C797S) stably transfected cell lines.
(§2) The cell lines were cultured in an incubator at 37° C. and 5% CO2. The cells were periodically passaged, and cells in logarithmic growth phase were taken for plating.
(§3) a) DMSO was used to prepare a 10 mM solution of the compound to be tested, and then the compound to be tested was diluted to 0.3 or 1 mM with DMSO.
(§4) b) Preparation of 1000× compound storage plate (tube): DMSO was used to dilute by 3-fold gradient from the highest concentration to the lowest concentration, with a total of 9 concentrations.
(§5) c) Preparation of 20× compound working solution: 49 μL of cell culture medium was added to a flat-bottomed 96-well transparent drug plate, and 1 μL of compound was pipetted from the 1000× compound storage plate to the cell culture medium of the 96-well transparent drug plate. 1 μL of DMSO was added to the vehicle control. After adding compound or DMSO, the well content was mixed to uniform by aspiration and expelling with pipette.
(§6) a) Cells were stained with trypan blue and viable cells were counted. The cell viability rate was required to be above 90%.
(§7) b) 95 μL of cell suspension (2000 cells/well) was added to each well of the compound detection cell plate, and culture medium without cells (containing 0.1% DMSO) was added to the Min control well.
(§8) c) Dosing in the compound detection cell plate: 5 μL of 20× compound working solution was added to the cell culture plate. 5 μL of DMSO-cell culture mixture was added to the Max control. The final concentration of DMSO was 0.1%.
(§9) d) The culture plate was incubated in an incubator at 37° C., 5% CO2 for 72 hours.
(§10) Cell proliferation inhibition rate (Inhibition Rate) data were processed using the following formula:
Inhibition Rate (Inh %)=100−(RLUDrug−RLUMin)/(RLUMax−RLUMin)*100%.
The inhibition rates corresponding to different concentrations of compounds were calculated, and then GraphPad Prism software was used to draw the inhibition rate curve and the IC50 value was calculated.
(In general: In ATP-based viability assays light output follows the ATP content of the culture.)

In test [2] the target is Ba/F3-FL-EGFR (del19-S752-I759) (Homo sapiens, UniProt P00533, DEL752-759, cells depend on it). Put plainly: Cell proliferation inhibition, CellTiter-Glo. Format: cell-based. The note with it: 72 hours, read-out: Cell half-maximal inhibition concentration IC50 Ba/F3-FL-EGFR (del19-S752-I759). As for the experimental part:
as §1, §2, §3, §4, §5, §6, §7, §8, §9
(§11) The following steps were performed according to the instruction of Promega CellTiter-Glo luminescence cell viability detection kit (Promega-G7573). • a) The CellTiter-Glo buffer was thawed and allowed to stand to reach room temperature; • b) CellTiter-Glo substrate was allowed to stand to reach room temperature; • c) CellTiter-Glo buffer was added to CellTiter-Glo substrate in a bottle to dissolve the substrate to formulate CellTiter-Glo working solution; • d) The working solution was vortexed slowly for fully dissolution; • e) The cell culture plates were taken out and allowed to stand for 10 minutes to equilibrate to room temperature; • f) 50 μL (equal to half the volume of cell culture solution in each well) of Cell Titer-Glo working solution was added into each well. • g) The culture plates were shaken on an orbital shaker for 2 minutes to induce cell lysis; • h) The culture plates were left at room temperature for 10 minutes to stabilize the luminescence signal; • i) The luminous signal was detected on the PerkinElmer EnVision®2105 plate reader.
(§12) By PerkinElmer EnVision®2105 reading, the corresponding […] value RLU for each well was yielded.
as §10
(§13) Inhibition Rate (Inh %)=100−(RLUDrug−RLUMin)/(RLUMax−RLUMin)*100%. […]

The target in test [3] is Ba/F3-FL-EGFR (del19-E746-A750/T790M/C797S) (Homo sapiens, UniProt P00533, DEL746-750/T790M/C797S, cells depend on it). Put plainly: Cell proliferation inhibition, CellTiter-Glo. It counts as cell-based. The note with it: 72 hours, read-out: Cell half-maximal inhibition concentration IC50 Ba/F3-FL-EGFR (del19-E746-A750/T790M/C797S). As for the experimental part:
as §1, §2, §3, §4, §5, §6, §7, §8, §9, §11, §12, §10, §13

The target in the next test is Ba/F3-FL-EGFR (WT) (Homo sapiens, UniProt P00533). The test can be described thus: Cell proliferation inhibition, CellTiter-Glo. It counts as cell-based. As to conditions: 72 hours, read-out: Cell half-maximal inhibition concentration IC50 Ba/F3-FL-EGFR (WT). On the procedure:
as §1, §2, §3, §4, §5, §6, §7, §8, §9, §11, §12, §10, §13

Another test deals with Ba/F3-FL-EGFR (L858R) (Homo sapiens, UniProt P00533, L858R, cells depend on it). The test can be described thus: Cell proliferation inhibition, CellTiter-Glo. It counts as cell-based. The note with it: 72 hours, read-out: Cell half-maximal inhibition concentration IC50 Ba/F3-FL-EGFR (L858R). As for the experimental part: as §1, §2, §3, §4, §5, §6, §7, §8, §9, §11, §12, §10, §13

Test [4] relates to PC-9 (EGFR del19/T790M/C797S). As to conditions: J. Med. Chem. 2019, 62, 22, 10272-10293; cited from earlier work.

T1 sequence (P00533 25-1210 T790M/C797S/L858R): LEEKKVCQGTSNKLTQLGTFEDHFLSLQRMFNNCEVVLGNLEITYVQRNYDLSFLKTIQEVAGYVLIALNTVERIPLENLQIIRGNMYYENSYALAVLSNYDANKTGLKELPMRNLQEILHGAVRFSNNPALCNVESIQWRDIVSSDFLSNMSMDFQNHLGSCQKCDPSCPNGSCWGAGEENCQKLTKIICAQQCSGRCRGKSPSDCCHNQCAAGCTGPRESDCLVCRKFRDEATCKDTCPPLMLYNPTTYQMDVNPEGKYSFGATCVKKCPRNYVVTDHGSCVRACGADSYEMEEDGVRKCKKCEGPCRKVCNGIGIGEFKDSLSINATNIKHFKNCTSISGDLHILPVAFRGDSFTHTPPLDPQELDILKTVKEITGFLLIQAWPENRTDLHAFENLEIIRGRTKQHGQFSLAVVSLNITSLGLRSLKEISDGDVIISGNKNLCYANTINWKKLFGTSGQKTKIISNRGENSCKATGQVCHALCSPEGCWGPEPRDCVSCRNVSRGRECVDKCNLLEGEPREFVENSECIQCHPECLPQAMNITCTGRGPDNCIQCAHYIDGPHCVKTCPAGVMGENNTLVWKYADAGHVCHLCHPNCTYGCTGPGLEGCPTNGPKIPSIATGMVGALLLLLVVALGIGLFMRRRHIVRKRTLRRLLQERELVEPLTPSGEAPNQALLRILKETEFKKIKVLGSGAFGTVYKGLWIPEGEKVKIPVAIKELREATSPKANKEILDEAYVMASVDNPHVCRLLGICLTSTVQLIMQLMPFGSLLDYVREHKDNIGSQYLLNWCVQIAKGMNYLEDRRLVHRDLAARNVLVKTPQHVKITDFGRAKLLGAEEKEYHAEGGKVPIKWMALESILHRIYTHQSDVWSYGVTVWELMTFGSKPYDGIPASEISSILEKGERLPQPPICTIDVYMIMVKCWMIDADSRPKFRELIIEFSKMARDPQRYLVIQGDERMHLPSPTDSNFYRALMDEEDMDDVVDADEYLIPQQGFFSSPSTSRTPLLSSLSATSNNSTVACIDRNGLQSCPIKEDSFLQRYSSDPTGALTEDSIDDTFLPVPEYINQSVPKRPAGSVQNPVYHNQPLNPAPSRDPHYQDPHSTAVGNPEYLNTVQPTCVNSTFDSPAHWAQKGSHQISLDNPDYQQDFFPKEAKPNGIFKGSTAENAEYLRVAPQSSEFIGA
Ba/F3-FL-EGFR (L858R/T790M/C797S), sequence (P00533 whole entry T790M/C797S/L858R): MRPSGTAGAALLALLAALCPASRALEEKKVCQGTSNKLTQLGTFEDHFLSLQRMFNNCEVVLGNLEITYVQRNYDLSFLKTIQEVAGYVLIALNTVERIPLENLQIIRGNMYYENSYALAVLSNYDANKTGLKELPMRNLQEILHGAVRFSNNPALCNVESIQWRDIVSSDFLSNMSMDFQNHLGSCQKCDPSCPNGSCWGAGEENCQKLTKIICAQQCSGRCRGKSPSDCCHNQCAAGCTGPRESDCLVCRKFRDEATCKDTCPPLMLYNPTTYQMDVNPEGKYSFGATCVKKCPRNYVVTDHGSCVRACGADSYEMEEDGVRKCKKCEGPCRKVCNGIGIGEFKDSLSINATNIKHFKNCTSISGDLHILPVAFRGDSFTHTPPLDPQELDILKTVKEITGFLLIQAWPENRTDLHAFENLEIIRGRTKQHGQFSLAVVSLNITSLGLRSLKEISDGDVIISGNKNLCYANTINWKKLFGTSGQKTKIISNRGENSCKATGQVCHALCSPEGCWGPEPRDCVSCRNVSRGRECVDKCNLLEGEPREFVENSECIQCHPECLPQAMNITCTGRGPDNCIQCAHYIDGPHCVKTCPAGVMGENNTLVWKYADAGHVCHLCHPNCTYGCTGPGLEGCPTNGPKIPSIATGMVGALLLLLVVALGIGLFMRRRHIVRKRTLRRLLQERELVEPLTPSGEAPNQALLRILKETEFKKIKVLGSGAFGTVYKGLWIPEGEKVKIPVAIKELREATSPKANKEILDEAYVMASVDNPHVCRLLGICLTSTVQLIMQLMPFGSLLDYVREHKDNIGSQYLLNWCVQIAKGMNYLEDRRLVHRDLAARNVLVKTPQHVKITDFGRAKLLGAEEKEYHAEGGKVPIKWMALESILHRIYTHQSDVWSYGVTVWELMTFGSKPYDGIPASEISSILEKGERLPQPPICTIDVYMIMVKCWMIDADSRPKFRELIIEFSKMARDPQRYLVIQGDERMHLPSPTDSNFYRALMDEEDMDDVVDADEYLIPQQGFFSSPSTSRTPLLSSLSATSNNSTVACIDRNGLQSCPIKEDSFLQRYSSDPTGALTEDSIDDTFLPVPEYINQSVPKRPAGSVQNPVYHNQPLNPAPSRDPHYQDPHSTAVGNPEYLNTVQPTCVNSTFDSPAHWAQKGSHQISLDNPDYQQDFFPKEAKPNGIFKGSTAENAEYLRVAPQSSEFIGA
Ba/F3-FL-EGFR (L858R), sequence (P00533 whole entry L858R): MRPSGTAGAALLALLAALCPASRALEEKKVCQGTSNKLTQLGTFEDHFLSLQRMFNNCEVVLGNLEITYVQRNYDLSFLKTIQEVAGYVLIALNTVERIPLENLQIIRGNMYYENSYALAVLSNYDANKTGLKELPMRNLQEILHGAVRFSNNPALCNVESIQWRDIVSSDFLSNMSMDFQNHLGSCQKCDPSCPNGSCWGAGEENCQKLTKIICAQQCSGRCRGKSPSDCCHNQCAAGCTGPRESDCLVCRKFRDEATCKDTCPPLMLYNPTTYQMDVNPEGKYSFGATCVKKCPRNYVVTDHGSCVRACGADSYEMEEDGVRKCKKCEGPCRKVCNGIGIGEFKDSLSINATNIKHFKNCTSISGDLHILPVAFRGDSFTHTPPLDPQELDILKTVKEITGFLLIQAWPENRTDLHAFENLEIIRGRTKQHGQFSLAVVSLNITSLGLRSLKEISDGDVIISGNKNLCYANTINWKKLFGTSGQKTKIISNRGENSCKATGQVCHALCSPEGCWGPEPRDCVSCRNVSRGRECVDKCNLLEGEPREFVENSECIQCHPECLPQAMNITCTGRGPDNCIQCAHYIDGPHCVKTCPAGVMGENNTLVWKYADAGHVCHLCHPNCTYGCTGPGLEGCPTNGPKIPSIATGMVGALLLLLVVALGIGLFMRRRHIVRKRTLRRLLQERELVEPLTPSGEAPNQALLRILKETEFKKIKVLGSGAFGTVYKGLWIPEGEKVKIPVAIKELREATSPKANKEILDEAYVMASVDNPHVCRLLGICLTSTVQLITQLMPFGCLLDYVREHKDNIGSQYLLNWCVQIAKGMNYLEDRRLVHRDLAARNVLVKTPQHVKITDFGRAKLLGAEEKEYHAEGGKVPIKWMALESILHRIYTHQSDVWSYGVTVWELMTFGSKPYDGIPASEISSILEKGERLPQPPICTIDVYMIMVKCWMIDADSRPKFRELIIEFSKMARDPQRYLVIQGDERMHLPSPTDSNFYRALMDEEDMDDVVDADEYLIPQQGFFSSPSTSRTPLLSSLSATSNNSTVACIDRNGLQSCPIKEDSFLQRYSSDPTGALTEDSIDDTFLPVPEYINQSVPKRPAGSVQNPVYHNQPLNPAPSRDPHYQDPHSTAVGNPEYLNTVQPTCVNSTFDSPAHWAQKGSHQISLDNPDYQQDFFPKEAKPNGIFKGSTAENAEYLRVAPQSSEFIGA
Ba/F3-FL-EGFR (del19-E746-A750/T790M/C797S), sequence (P00533 with tags, fused parts or gaps DEL746-750/T790M/C797S): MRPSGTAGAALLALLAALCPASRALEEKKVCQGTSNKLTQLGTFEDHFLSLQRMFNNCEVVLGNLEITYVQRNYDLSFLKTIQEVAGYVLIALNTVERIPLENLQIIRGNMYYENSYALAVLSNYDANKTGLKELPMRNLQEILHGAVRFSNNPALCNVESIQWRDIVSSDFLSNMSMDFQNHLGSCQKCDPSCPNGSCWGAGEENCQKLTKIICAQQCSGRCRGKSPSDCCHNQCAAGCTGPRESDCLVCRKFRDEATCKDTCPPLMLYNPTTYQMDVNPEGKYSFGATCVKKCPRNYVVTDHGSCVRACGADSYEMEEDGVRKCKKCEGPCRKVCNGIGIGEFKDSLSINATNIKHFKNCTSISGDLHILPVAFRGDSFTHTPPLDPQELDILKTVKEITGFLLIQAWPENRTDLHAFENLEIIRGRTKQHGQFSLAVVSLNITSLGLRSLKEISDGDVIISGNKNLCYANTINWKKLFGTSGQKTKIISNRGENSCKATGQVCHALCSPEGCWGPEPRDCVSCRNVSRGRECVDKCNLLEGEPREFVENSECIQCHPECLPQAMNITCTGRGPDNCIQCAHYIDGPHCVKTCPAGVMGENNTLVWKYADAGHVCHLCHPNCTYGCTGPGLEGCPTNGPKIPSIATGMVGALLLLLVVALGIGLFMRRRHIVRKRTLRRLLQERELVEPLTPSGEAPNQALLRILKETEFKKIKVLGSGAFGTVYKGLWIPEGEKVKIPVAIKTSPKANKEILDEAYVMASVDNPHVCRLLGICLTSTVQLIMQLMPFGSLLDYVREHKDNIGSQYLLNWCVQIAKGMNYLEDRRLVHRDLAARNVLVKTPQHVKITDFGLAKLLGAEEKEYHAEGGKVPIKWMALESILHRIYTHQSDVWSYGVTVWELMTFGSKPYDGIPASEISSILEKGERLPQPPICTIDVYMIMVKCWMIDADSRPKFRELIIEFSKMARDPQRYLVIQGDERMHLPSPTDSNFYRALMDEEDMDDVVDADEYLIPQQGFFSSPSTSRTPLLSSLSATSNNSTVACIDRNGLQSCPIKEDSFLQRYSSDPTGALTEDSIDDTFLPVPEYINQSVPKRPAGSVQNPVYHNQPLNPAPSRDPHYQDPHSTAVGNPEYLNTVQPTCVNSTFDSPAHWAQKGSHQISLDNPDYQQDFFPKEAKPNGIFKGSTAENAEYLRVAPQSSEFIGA

As to `CCP(=O)(CC)c1ccc2c(c1)N1C[C@H](C)CCCOc3c(cnn3C)-c3cc(cc(C)n3)C(=O)/N=C/1N2` [WX-004 (trifluoroacetate)], on EGFR (L858R/T790M/C797S) (ATP 100 μM), the pIC50 is 8.76.

As for `Cc1cc2cc(n1)-c1cnn(C)c1OCCC[C@@H](C)CN1/C(=N/C2=O)Nc2ccc(N=S3(=O)CCNCC3)cc21` [WX-014], the GI50 in test [1] amounted to 14.3 nM; in test [2], 38.1 nM; in test [3], 2.9 nM; at Ba/F3-FL-EGFR (WT), 421 nM; at Ba/F3-FL-EGFR (L858R), 53.9 nM. Regarding `Cc1cc2cc(n1)-c1cnn(C)c1OCCC[C@@H](C)CN1/C(=N/C2=O)Nc2ccc(N=S(C)(C)=O)cc21` [WX-006 (trifluoroacetate)], the GI50 in test [1] is 2.3 nM. Moreover, the pIC50 at EGFR (L858R/T790M/C797S) (ATP 100 μM) was 9.08.

Regarding `Cc1cc2cc(n1)-c1cnn(C)c1OCCC[C@@H](C)CN1/C(=N/C2=O)Nc2ccc(P(=O)(C(C)C)C(C)C)cc21` [WX-005 (trifluoroacetate)], the GI50 in test [1] worked out at 7.2 nM. Besides, the pIC50 on EGFR (L858R/T790M/C797S) (ATP 100 μM) is 8.79.

For the molecule `Cc1cc2cc(n1)-c1cnn(C)c1OCCC[C@@H](C)Cn1c(nc3ccc(CN4CCN(C)CC4)cc31)NC2=O` [BI-4020], in test [4], the Anti-tumor efficacy result is given as “good anti-tumor efficacy”.

On to `Cc1cc2cc(n1)-c1cnn(C)c1OCCC[C@@H](C)CN1/C(=N/C2=O)Nc2ccc(N=S3(=O)CCCCC3)cc21` [WX-011], for which, in test [1], the GI50 is 4.4 nM. Consider `Cc1cc2cc(n1)-c1cnn(C)c1OCCC[C@@H](C)CN1/C(=N/C2=O)Nc2ccc(N=S3(=O)CCN(C4COC4)CC3)cc21` [WX-030], for which the GI50 in test [1] is 13 nM. The same measure, in the same setting: next, `CCS(=O)(CC)=Nc1ccc2c(c1)N1C[C@H](C)CCCOc3c(cnn3C)-c3cc(cc(C)n3)C(=O)/N=C/1N2` [WX-012 (hydrochloride)]: 7.3 nM. As for `Cc1cc2cc(n1)-c1cnn(C)c1OCCC[C@@H](C)CN1/C(=N/C2=O)Nc2ccc(N=S3(=O)CCN(C)CC3)cc21` [WX-015], in test [1], the GI50 is 10.6 nM. Consider `Cc1cc2cc(n1)-c1cnn(C)c1OCCC[C@@H](C)CN1/C(=N/C2=O)Nc2ccc(N=S3(=O)CCC4(CC3)CN(C)C4)cc21` [WX-031], for which the GI50 in test [1] was 2.1 nM. Consider `CCS(=O)(=O)c1ccc2c(c1)N1C[C@H](C)CCCOc3c(cnn3C)-c3cc(cc(C)n3)C(=O)/N=C/1N2` [WX-002 (formate)], for which the pIC50 at EGFR (L858R/T790M/C797S) (ATP 10 μM) was 9.33. As for `Cc1cc2cc(n1)-c1cnn(C)c1OCCC[C@@H](C)CN1/C(=N/C2=O)Nc2ccc(P(C)(C)=O)cc21` [WX-001 (trifluoroacetate)], the pIC50 at EGFR (L858R/T790M/C797S) (ATP 10 μM) is 9.80; on EGFR (L858R/T790M/C797S) (ATP 100 μM), 8.93. With `Cc1cc2cc(n1)-c1cnn(C)c1OCCC[C@@H](C)CN1/C(=N/C2=O)Nc2ccc(N=S3(=O)CC4CN(C)CC4C3)cc21` (some centres unmarked) [WX-024], the GI50 in test [1] amounted to 1.4 nM. On the same count and under the same terms, the value for `Cc1cc2cc(n1)-c1cnn(C)c1OCCC[C@@H](C)CN1/C(=N/C2=O)Nc2ccc(N=S3(=O)CCC4(CCN(C)CC4)CC3)cc21` [WX-023] was 2.7 nM; that for `Cc1cc2cc(n1)-c1cnn(C)c1OCCC[C@@H](C)CN1/C(=N/C2=O)Nc2ccc(N=S3(=O)CCC4(CC3)COC4)cc21` [WX-029] was 5.5 nM; that for `Cc1cc2cc(n1)-c1cnn(C)c1OCCC[C@@H](C)CN1/C(=N/C2=O)Nc2ccc(N=S3(=O)CCC4(CCOCC4)CC3)cc21` [WX-028] was 3.3 nM. As to `Cc1cc2cc(n1)-c1cnn(C)c1OCCC[C@@H](C)CN1/C(=N/C2=O)Nc2ccc(N=S3(=O)CCN(C4CCN(C)CC4)CC3)cc21` [WX-022], in test [1], the GI50 came out at 12.7 nM. The same measure, in the same setting: the value for `Cc1cc2cc(n1)-c1cnn(C)c1OCCC[C@@H](C)CN1/C(=N/C2=O)Nc2ccc(N=S3(=O)CC4(COC4)C3)cc21` [WX-025] was 5.7 nM; that for `Cc1cc2cc(n1)-c1cnn(C)c1OCCC[C@@H](C)CN1/C(=N/C2=O)Nc2ccc(N=S3(=O)CCC(N4CCN(C)CC4)CC3)cc21` (some centres unmarked) [WX-026] was 11.6 nM.
